The values that follow come from patent US8580776B2, “Compositions and methods for treating neurodegenerating diseases” (The Board of Trustees of the University of Illinois, priority 2007, dated 2013).

Experiment [1] concerns BACE1, PSEN1, Adam10. As to the kind of experiment: Western blot and PCR analysis of APP processing enzymes in 9 month-old mice. The conditions noted are these: data not shown. The class given is in vivo. As to the method: (§1) Brain tissue was homogenized in 8M urea. Total protein concentration was determined using the Bradford assay and BSA as standard. Proteins were separated on 8 or 15% SDS page gels, transferred to PVDF membrane and incubated with antibodies: anti-APP^645-694 G369 (1:4000), anti α-tubulin (T-9026, Sigma) (1:5000). Signals were detected using the ECL Kit (Amersham), band intensities calculated using Image J software (ImageJ 1.31V), and normalized to α-tubulin values.
(§2) Total cytoplasmic RNA from tissues was isolated using TRIZOL reagent, (Invitrogen/GIBCO); aliquots were converted to cDNA using random hexamer primers, and mRNA levels were estimated by quantitative touchdown PCR (QPCR). PCR conditions were 35 cycles of denaturation at 94° C. for 10 s; annealing at 58-64° C. for 15 s; and extension at 72° C. for 20 s on a Corbett Rotorgene Real-Time PCR unit (Corbett, Australia). PCR was done using Taq DNA Polymerase (Invitrogen), and contained SYBR Green (SybrGreen1 10,000× concentrate, diluted 1:10,000; Molecular Probes, Eugene, Oreg.). Relative mRNA concentrations were calculated from the takeoff point of reactions using manufacturer's software, and were normalized to α-tubulin, β-actin, and glyceraldehyde-3-phosphate dehydrogenase (GDH). Melting curve analysis and agarose gel electrophoresis ensured production of single and corrected size products. The primers used were: […]
In general terms: Immunoblotting shows a protein as a band on a membrane.

Experiment [2] has as its system TgAPP H6 mice. As to the kind of experiment: Amyloid plaque burden (Aβ1-42 staining) in brain sections of TgAPP H6 mice. In kind it is in vivo. The source says:
Transgenic mice (H6) overexpressing the Indiana V717F mutation of human APP under control of the PDGFR promoter (Mucke et al., 2000, “High-level neuronal expression of abeta 1-42 in wild-type human amyloid protein precursor transgenic mice: synaptotoxicity without plaque formation,” J Neurosci 20:4050-8) were obtained from Dr. Lennart Mucke (J. David Gladstone Institute, San Francisco, Calif.). Male hemizygous H6 mice were bred to wild type C57BL6 (Charles River Breeding) females to obtain hemizygous progeny. Genotype was verified by PCR analysis of tail DNA using the forward primer 5′-GGTGAGTTTGTAAGTGATGCC-3′ (SEQ ID NO:1) and reverse primer 5′-TCTTCTTCTTCCACCTCAGC-3′ (SEQ ID NO:2). Animals were housed in groups of four under standard conditions with full access to food and water.
Hemizygous male H6 mice (aged 3 to 4 months) were injected with vehicle or with DSP4 (5 mg per kg; i.p., every two weeks) and all mice were sacrificed at age 9 months. This protocol (a low, chronic dose) results in 70% loss of LC noradrenergic neurons. Brains were dissected, the left hemispheres were fast frozen in isopentane at −30° C. and stored at −80° C. for subsequent protein and RNA studies. The right hemispheres were processed for immunohistochemistry.
TgAPP H6 mice were treated with DSP4 (5 mg/kg every two weeks) beginning at age 3-4 months, and brain sections analyzed at age 9 months (FIGS. 1A-1B). Hemibrains were fixed overnight in 4% paraformaldehyde in 0.1M phosphate buffer, then overnight in 10% sucrose in 0.1M phosphate buffer, and then frozen in isopentane at −30° C. Serial sections (35 um thick) were prepared on a cryostat, and stored in cryoprotective solution (0.1M phosphate buffer: ethyleneglycol: glycerol 30:40:30) at −20° C. For Aβ1-42 staining, sections were treated with formic acid (95%, 3 min), incubated overnight at 4° C. with primary antibody directed against Aβ1-42 (1:4000 dilution, Calbiochem FCA3542 rabbit polytonal antibody raised against a synthetic peptide corresponding to amino acids 706-713 of human APP), washed, then incubated with anti-rabbit biotinylated secondary antibody (Vector BA-1000, diluted 1:400) and visualized using an ABC kit (Vector). For quantification of Aβ plaques, for each animal (n=6 vehicle treated and n=6 DSP4 treated mice) 8 stained, serial sections separated by 210 μm and spanning approximately 1.5 mm between Bregma points −1.50 mm to −3.00 mm were mounted onto glass slides and imaged with a Zeiss Axiophot 2 microscope, equipped with an Axiocam B&W MRm camera. Sections were viewed at 100× using a 10× objective, and the average plaque number and % area stained (relative to the total section area of 21 mm^2) per section were determined. The threshold of brightness intensity (range black=0 to white=255) used for selection of plaques was established by determining average pixel intensity from 3 areas devoid of staining, and then adjusting that value to maximize inclusion of all visibly-stained plaques while minimizing inclusion of background areas. This value was used for all sections (all stained at the same time). For all sections, visual inspection following automated counting was done to ensure exclusion of meninges, ventricular space, or other artifacts.
Representative sections from vehicle (FIG. 1A, containing 19 plaques) and DSP4 treated (B, containing 64 plaques) mice are shown in FIG. 1. Plaque burden (number and area stained) was quantified using Axiovision 4.5 Measurement Wizard software. Sections were viewed at 100× using a 10× objective, and the average plaque number (FIG. 1C) and % area stained (FIG. 1D, relative to the total section area of 21 mm^2) per section determined (n=8 sections per animal). The data was analyzed by two-tailed t-test assuming equal variances; *, P <0.05. The relative size distribution for all plaques detected in vehicle (n=626) and DSP4 treated (n=3009) brain sections is shown (FIG. 1E). […]

Experiment [3] concerns APP. As to the kind of experiment: Western blot of APP holo-protein and C-terminal fragments in brain extracts. The class given is in vivo, mice. The conditions noted are these: cortical lysates, versus vehicle. As to the method: as §1
In experiment [4] the test system is insulin degrading enzyme (IDE). As to the kind of experiment: QPCR of insulin degrading enzyme mRNA in brain samples. In kind it is in vivo, mice. The conditions noted are these: cortical samples, versus vehicle. As to the method:
as §2
Comparative real time RT-PCR (or quantitative PCR, QPCR) was used to measure mRNA levels of the Aβ degrading enzymes neprilysin (Nep) and insulin degrading enzyme (IDE) in brain samples from vehicle and DSP4 treated mice (FIG. 4A). […] To assess the effects of dose, mouse neuronal N2A cells were incubated with increasing does of NA for 24 hr after which NEP activity was measured (FIG. 4D, data is mean±sd and is from n=3 samples). […]

Structures are written as SMILES.

Turning to `CCN(CCCl)Cc1ccccc1Br` [DSP4, N-(2-chloroethyl)-N-ethyl-2-bromobenzylamine], in experiment [1], the “BACE1, PSEN1, Adam10 mRNA, BACE1 protein, human APP mRNA levels” value is on record as “did not reveal any significant changes”. In experiment [2] (DSP4 5 mg/kg every two weeks, age 9 months, vehicle 13.5±3), the average plaque number worked out at 62.7±18 per section. Also, the average area stained in experiment [2] (DSP4 5 mg/kg every two weeks, age 9 months, vehicle 1,810±464) is listed as 11,100±3,000 μm^2. Besides, the “plaques >5,000 μm^2 out of all plaques detected” value in experiment [2] (DSP4 sections, vehicle 1/626) is 16/3009. Further, the “relative plaque size distribution” value in experiment [2] (age 9 months) is “did not significantly alter”. For the same molecule, in experiment [2] (age 9 months, versus vehicle), the “increase in plaque number” value stood at 5 fold. Besides, in experiment [2] (age 9 months, vehicle 0.008%), the “area stained as % total sectional area” value was 0.051%. Besides, the “plaque appearance in non-transgenic wild type littermates” value in experiment [2] (data not shown) is reported as “did not induce plaque appearance”. This molecule gave an average plaque size in experiment [2] (n=3009 plaques, vehicle 135±18, increase not statistically significant) of 174±8 μm^2. The “plaques with size greater than 7,000 μm^2” value in experiment [2] (out of 3009 counted) is 13 out of 3009. The “plaques in representative section” value in experiment [2] (representative section FIG. 1B, vehicle 19) is reported as 64 plaques. Also, in experiment [3], the “levels of holoAPP” value was “no effect”. The “levels of insulin degrading enzyme (IDE) mRNA” value in experiment [4] is “small, non-significant reductions”.
